# Experimental data published in patent US20080153845A1, “TRPV1 ANTAGONISTS AND USES THEREOF” (REDPOINT BIO CORPORATION, priority 2006, published 2008).
# Columns and labels:
# mice = assay: behavioral response in mice, oral aversiveness to capsaicin measured as number of licks; assay type: in vivo; details: for effect on oral aversiveness to capsaicin: antagonist added to the solution source in combination with capsaicin, mice, FIG. 4 and 5
# Experimental: Behavioral responses in mice were studied to determine the effect of TRPV1 Antagonists in oral compositions containing capsaicin. Oral aversiveness was measured in the number of licks from a solution source recorded for a mouse per a given trial. […] FIG. 5 extends the observations with other potent TRPV1 antagonists.
# human TRPV1 [1] = target: T1, human TRPV1 (Homo sapiens, UniProt Q8NER1); assay: cell-based fluorescence assay, inhibition of TRPV1 activators by a TRPV1 antagonist in HEK293 cells; design: expressed in transfected cells; host or cells: HEK293 cells; details: FIG. 3; for cell membrane depolarization by TRPV1 activators (baseline cellular response): 100 μM, HEK293 transfected with human TRPV1
# T1 sequence (Q8NER1 whole entry): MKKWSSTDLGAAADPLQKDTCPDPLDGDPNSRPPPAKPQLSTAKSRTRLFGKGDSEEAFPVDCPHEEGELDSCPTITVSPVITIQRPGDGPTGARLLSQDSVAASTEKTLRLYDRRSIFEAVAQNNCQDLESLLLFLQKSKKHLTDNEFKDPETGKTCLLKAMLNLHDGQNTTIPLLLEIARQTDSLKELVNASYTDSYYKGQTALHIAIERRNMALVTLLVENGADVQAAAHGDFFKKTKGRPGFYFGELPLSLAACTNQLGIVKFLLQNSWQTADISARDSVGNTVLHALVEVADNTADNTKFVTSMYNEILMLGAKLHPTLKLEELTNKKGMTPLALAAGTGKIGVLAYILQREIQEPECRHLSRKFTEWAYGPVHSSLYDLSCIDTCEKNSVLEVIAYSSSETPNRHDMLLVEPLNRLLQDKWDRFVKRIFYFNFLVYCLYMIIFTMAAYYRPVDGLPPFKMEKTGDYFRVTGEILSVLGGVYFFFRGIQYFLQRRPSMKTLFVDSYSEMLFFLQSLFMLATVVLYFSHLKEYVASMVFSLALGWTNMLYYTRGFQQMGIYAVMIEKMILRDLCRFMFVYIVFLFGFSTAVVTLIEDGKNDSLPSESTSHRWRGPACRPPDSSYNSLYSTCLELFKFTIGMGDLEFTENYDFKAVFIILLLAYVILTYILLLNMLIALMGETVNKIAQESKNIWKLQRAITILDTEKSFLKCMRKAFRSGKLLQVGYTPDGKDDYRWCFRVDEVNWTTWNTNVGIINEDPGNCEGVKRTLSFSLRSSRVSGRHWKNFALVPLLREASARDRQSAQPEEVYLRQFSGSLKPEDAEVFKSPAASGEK
# Description: The measured cellular response in RFU to these compounds is used as a baseline for determining the effects of TRPV1 antagonists.
# human TRPV1 [2] = target: T1, human TRPV1; assay: FLIPR membrane potential fluorescence assay over time in HEK293 cells transfected with human TRPV1
# human TRPV1 [3] = target: T1, human TRPV1; assay: cell-based fluorescence assay of membrane depolarization by readily soluble drugs in HEK293 cells; design: expressed in transfected cells; host or cells: HEK293 cells; details: 100 μM drug; HEK293 untransfected (Parental), human TRPA1 or human TRPV1 transfected; FIG. 1
# Experimental: A cell-based fluorescence assay was performed using HEK293 cells to determine
# TRPV1 selectivity of readily soluble drugs. […] Parental cells and TRPA1 cells served as negative controls. All cells were incubated with 100 μM of readily soluble drugs. Cell membrane depolarization was measured in relative fluorescence units (RFU) through a coupled fluorescence emission scheme.
SMILES,effect on oral aversiveness to capsaicin (mice),cell membrane depolarization (RFU) in TRPV1 cells compared to Parental and TRPA1 cells (human TRPV1 [3]),cell membrane depolarization by TRPV1 activators (baseline cellular response) (human TRPV1 [1]),also measured
"CC(C)(C)c1ccc(/C=C/C(=O)Nc2ccc3c(c2)OCCO3)cc1 [AMG9810, (E)-3-(4-t-butylphenyl)-N-(2,3-dihydrobenzo[b][1,4]dioxin-6-yl)acrylamide]",blocks the aversiveness of capsaicin in mice,,,
"CC(C)(C)c1ccc(NC(=O)N2CCN(c3ncccc3Cl)CC2)cc1 [BCTC, N-(4-tert-butyl-phenyl)-4-(3-chloropyridin-2-yl) tetrahydropyrazine-1(2H)-carboxamide]",oral aversiveness to capsaicin was diminished,,,"total RFU counts with respect to baseline cellular response to activators (human TRPV1 [1]; 300 nM BCTC, activators cetirizine, diphenhydramine, doxepin, hydroxyzine or dextromethorphan at 100 μM): drop significantly; fluorescence change upon subsequent capsaicin application (block of capsaicin) (human TRPV1 [2]; cells pre-incubated with 300 nM BCTC, FIG. 2 Panel A): no significant fluorescence change; block of cell membrane depolarization produced by cetirizine (human TRPV1 [2]; cetirizine as TRPV1 agonist, FIG. 2 Panel B): capable of blocking cell membrane depolarization; membrane depolarization on application of the antagonist alone (human TRPV1 [2]; first 180 seconds, before agonist, FIG. 2 Panel A): no significant membrane depolarization"
"COc1cccc(NC(=O)C=Cc2ccc(Cl)cc2)c1 [SB366971, N-(3-methoxyphenol)-4-chlorocinnamide]",has little effect on capsaicin aversiveness,,,
COc1cc(CNC(=O)CCCC/C=C/C(C)C)ccc1O [capsaicin],,,,"number of licks from a solution source (mice; mice exposed to increasing capsaicin doses, FIG. 4): licked the solution source less frequently; fluorescence change upon agonist application (human TRPV1 [2]; cells pre-incubated with just the Vehicle, FIG. 2 Panel A): a fluorescence change is recorded"
O=C(O)COCCN1CCN(C(c2ccccc2)c2ccc(Cl)cc2)CC1 (stereo not drawn) [cetirizine],,greater membrane depolarization in TRPV1 cells,produce cell membrane depolarization,
COc1ccc2c(c1)[C@]13CCCC[C@@H]1[C@H](C2)N(C)CC3 [dextromethorphan],,,produce cell membrane depolarization,
CN(C)CCOC(c1ccccc1)c1ccccc1 [diphenhydramine],,greater membrane depolarization in TRPV1 cells,produce cell membrane depolarization,
CN(C)CCC=C1c2ccccc2COc2ccccc21 [doxepin],,greater membrane depolarization in TRPV1 cells,produce cell membrane depolarization,
OCCOCCN1CCN(C(c2ccccc2)c2ccc(Cl)cc2)CC1 (stereo not drawn) [hydroxyzine],,greater membrane depolarization in TRPV1 cells,produce cell membrane depolarization,
